Ends that are not written are not given here.
How the values were obtained:
[1] = tested on: Ucp1 gene expression in primary brown adipocytes of Ucp1^ki/ki mice; assay: Luciferase assay, FLUC activity as surrogate for Ucp1 expression; type: cell-based, mouse; settings: overnight stimulation, normalized to total protein content, n = 3, Figure 1D
Protocol: After overnight stimulation of primary brown adipocytes of Ucp1^ki/ki mice luciferase activity was assayed using a commercial kit system (Luciferase Assay System Freezer Pack E4030, Promega GmbH). Primary cells were lysed in 1x reporter lysis buffer by shaking for 20 min at room temperature. 10 μl lysate was mixed with 50 μl luciferase assay substrate solution, and the mixture was measured by FB12 in a luminometer (Single Tube Luminometer, Titertek-Berthold GmbH). Bioluminescence readouts were normalized to total protein content.
We then measured FLUC activity in primary brown adipocytes from Ucp1^ki/ki reporter gene mice to determine the effect of the GsPCR ligands on Ucp1 gene expression in response to overnight stimulation. As the expression of Fluc in these cells is driven by Ucp1promoter, FLUC activity served as a surrogate for Ucp1 expression.

primary brown adipocytes = assay: Microplate-based respirometry (XF96), UCP1-mediated uncoupled respiration; type: cell-based, mouse; settings: for Stimulated respiration (fold increase of basal leak), ACTH heptapeptide fragments: fragments 1 μM, n = 4, Figures 4A,B,D,E; for Stimulated respiration (UCP1-dependent uncoupled respiration) as fold increase of basal leak respiration, GsPCR ligand screen: primary brown adipocytes (129S6 mice), acute addition after oligomycin 5 μM, medium with 1–2% fatty acid free BSA, 37°C, n = 5, Figures 1B,C
Protocol: Oxygen consumption of primary brown adipocytes was measured at 37°C using microplate-based respirometry (XF96 extracellular flux analyzer, Seahorse Bioscience) as described previously ([Li et al., 2014b]) following the subsequent protocol at day 7 of differentiation. Prior to the respiration measurement, primary cells were washed with warmed, unbuffered assay medium (DMEM basal medium supplemented with 25 mM glucose, 31 mM NaCl, 2 mM GlutaMax and 15 mg/l phenol red, pH 7.4) (basal assay medium). Subsequent to the medium replacement with basal assay medium containing 1–2% essentially fatty acid free bovine serum albumin (BSA), cells were incubated at 37°C in a CO2-free incubator for 1 h. Assay reagents were loaded into the drug injections ports of the sensor cartridges at 10X in basal assay medium (no BSA). After assessment of basal oxygen consumption in untreated cells oligomycin (5 μM) was injected to inhibit coupled respiration and to determine basal leak respiration. Next, effector was added to investigate UCP1-dependant uncoupled respiration. By the addition of FCCP (1 μM) maximal respiratory capacity was determined. Lastly, non-mitochondrial oxygen consumption was assessed by blocking mitochondrial respiration with antimycin A (5 μM). For some experiments, cells were pretreated for 1 h with 50 μM H89 (PKA inhibitor), 1–100 μM propranolol (β-adrenergic receptor antagonist), 40 μM Atglistatin (ATGL inhibitor) and 40 μM Hi76-0079 (HSL inhibitor) 1 h prior to the measurement. Oxygen consumption rates were automatically calculated by the Seahorse XF-96 software. Each experiment was repeated at least three times with similar results and five to eight replicate wells for every condition in each independent experiment. Results are predominately expressed as stimulated respiration which is calculated as fold increase of basal leak.
In our first screen, we tested whether these GsPCR ligands can activate oxygen consumption acutely in brown adipocytes. UCP1-mediated uncoupled respiration was quantified in cultured adherent intact primary brown adipocytes, according to a protocol established in our lab ([Li et al., 2014b]). After recording basal respiration and the fraction of coupled and uncoupled respiration, UCP1-dependent respiration was measured. Finally, maximal respiratory capacity and non-mitochondrial oxygen consumption were assessed by adding the uncoupling agent carbonyl cyanide 4-(trifluoromethoxy) phenylhydrazone (FCCP) and antimycin A was added to block the electron transport chain, respectively. All respiration assays were performed in the presence of BSA to buffer free fatty acid (FFA) levels in the respiration medium.

[2] = tested on: cytosolic cAMP in primary brown adipocytes; assay: Quantification of cellular cAMP (cAMP-Glo Assay); type: cell-based, mouse
Protocol: Changes in cytosolic cAMP concentrations were determined in primary brown adipocytes in response to ACTH- or isoproterenol stimulation using cAMP-Glo Assay (Promega) following the manufacturer’s instructions.

[3] = tested on: Ucp1 mRNA in primary brown adipocytes; assay: Ucp1 gene expression analysis (qRT-PCR), brown adipocytes; type: cell-based, mouse; settings: for Ucp1 mRNA expression, ACTH heptapeptide fragments: normalized to Gtf2b, n = 4, Figures 4C,F
Protocol: (§1) Total RNA was isolated using Trisure (Bioline) and purified with SV total RNA Isolation System (Promega). Reverse transcriptase reactions were performed using SensiFAST cDNA Synthesis Kit (Bioline). Quantitative real-time PCR (qRT-PCR) was performed with SYBR green fluorescent dye in 384-well format using LightCycler 480 (Roche). General Transcription Factor IIB (Gtf2b) served as an internal control. To be able to calculate relative gene expression levels of samples, standard reactions containing serial diluted pooled cDNA of all samples (Pure, 1:2, 1:4, 1:8, 1:16, 1:32 and 1:64) as a template were used to establish a standard curve. The RNA abundance of Ucp1 gene was normalized to the housekeeping gene Gtf2b. The following primers were used: […]

[4] = tested on: β3-adrenergic receptor (Adrb3) expression; assay: Adrb3 gene expression (qRT-PCR) in primary brown adipocytes; type: cell-based, mouse; settings: 5 μM Dexa, 0–4 h, n = 4
Protocol: as §1

[5] = tested on: melanocortin 2 receptor (Mc2r) expression; assay: Mc2r gene expression (qRT-PCR) in primary brown adipocytes; type: cell-based, mouse; settings: 5 μM Dexa, 0–4 h, n = 4
Protocol: as §1

[6] = tested on: Ucp1 mRNA and UCP1 protein; set-up: method as in Soumano et al., 2000; van den Beukel et al., 2014; settings: ref Soumano et al., 2000; van den Beukel et al., 2014; cited from earlier work
Source text: To address the physiological role of ACTH in brown fat thermogenesis we analyzed the expression of its receptor in BAT of mice in response to cold exposure. […] Basically, ACTH triggers the release of glucocorticoids from the cortex of the adrenal gland. Circulating glucocorticoids exert negative feedback control on the […] ...

release of FFAs = settings: lipolysis as criterion of potency; ref Draper et al., 1973; cited from earlier work
Source text: The heptapeptide sequence, Met-Glu-His-Phe-Arg-Trp-Gly, is common to all the adrenocorticotropic (ACTH), melanotropic (MSH), and lipotropic (LPH) hormones.

[7] = 5 μM Dexa pretreatment, n = 4, Figure 5G

CCNC(=O)[C@H]1O[C@@H](n2cnc3c(N)nc(NCCc4ccc(CCC(=O)O)cc4)nc32)[C@H](O)[C@@H]1O [CGS21680]
FLUC (luciferase) activity as surrogate for Ucp1 expression [1]: no effect on FLUC

C[C@@H]1C[C@H]2[C@@H]3CCC4=CC(=O)C=C[C@]4(C)[C@@]3(F)[C@@H](O)C[C@]2(C)[C@@]1(O)C(=O)CO [Dexa, dexamethasone]
Effect of Dexa pretreatment on ACTH-induced respiration (primary brown adipocytes; 5 μM Dexa, 0–4 h, n = 4, Figure 5C): unaffected
Effect of Dexa pretreatment on ISO-stimulated respiration (primary brown adipocytes; 5 μM Dexa, 0–4 h, with increasing exposure time, n = 4, Figure 5C): attenuated ISO-stimulated respiration
Effect of Dexa on respiration, one-hour pre-treatment or acute stimulation (primary brown adipocytes; 5 μM Dexa, n = 4, Figure 5B): had no effect on respiration
Effect of DEXA treatment on thermogenic response, 1 h (primary brown adipocytes; DEXA treatment for 1 h): had no effect
Effect of DEXA treatment on thermogenic response to ISO, 4 h (primary brown adipocytes; extended DEXA treatment for 4 h, compared with 2 h): more pronounced
Effect of DEXA treatment on thermogenic response to ISO, 2 h (primary brown adipocytes; two hours of DEXA treatment): significant downregulation of the thermogenic response to ISO
Effect of Dexa on ACTH induced rise in cellular cAMP [2, 7]: no such effect was observed for ACTH
Effect of Dexa on ISO induced rise in cellular cAMP [2, 7]: attenuated the ISO induced rise in cellular cAMP levels
Effect of Dexa on Ucp1 expression ([3]; 4-h treatment, 5 μM Dexa, n = 4): no significant effect on Ucp1 expression
Effect of Dexa on expression of the β3-adrenergic receptor [4]: not a consequence of reduced or increased expression
Effect of Dexa on expression of the melanocortin 2 receptor [5]: not a consequence of reduced or increased expression

O=S(=O)(NCCNC/C=C/c1ccc(Br)cc1)c1cccc2cnccc12 [H89]
Effect of PKA inhibitor on ACTH-stimulated respiration (primary brown adipocytes; H89 50 μM, ACTH 1 μM, n = 4, Figure 2E): completely blocked the effect on respiration of ACTH

CC(C)NCC(O)c1ccc(O)c(O)c1 (stereo not drawn) [ISO, isoproterenol]
EC50 ([2]; Mus musculus, Adipocyte, 0.5 h, stimulation for 30 min, n = 3, non-linear regression, Figure 2D): 9.41 nM

CCCCC[C@H](O)/C=C/[C@H]1[C@H](O)CC(=O)[C@@H]1C/C=C\CCCC(=O)O [PGE2, Prostaglandin E2]
FLUC (luciferase) activity as surrogate for Ucp1 expression [1]: moderate rise in FLUC activity

C[C@]12C[C@H](O)[C@H]3[C@@H](CCC4=CC(=O)CC[C@@]43C)[C@@H]1CC[C@@H]2C(=O)CO [corticosterone]
Effect on Ucp1 mRNA and UCP1 protein in response to adrenergic stimulation and ACTH treatment [6]: reduces Ucp1 mRNA and UCP1 protein

CC(C)NCC(O)COc1cccc2ccccc12 (stereo not drawn) [propranolol]
Effect of propranolol pre-treatment on ACTH stimulated respiration (primary brown adipocytes; 1 h pretreatment, 1–100 μM propranolol, ACTH 1 μM, n = 4, Figure 2B): did not attenuate ACTH stimulated respiration
Effect of propranolol pre-treatment on ISO stimulated respiration (primary brown adipocytes; 1 h pretreatment, 1–100 μM propranolol, ISO 0.5 μM, n = 4, Figure 2B): blocking the effect of ISO in a dose-dependent manner

MRHFRWG [synACTH(4-10), mutant ACTH fragment, synthetic analog of ACTH(4-10) with amino acid exchange from Glu to Arg]
Stimulated respiration (fold increase of basal leak), ACTH heptapeptide fragments (primary brown adipocytes): mildly increased respiration
Ucp1 mRNA expression, ACTH heptapeptide fragments [3]: comparable to that of the natural heptapeptide
Activity on the release of FFAs compared to the natural ACTH core sequence (release of FFAs): fourfold increased activity on the release of FFAs

Met-Glu-His-Phe-Arg-Trp-Gly [ACTH(4-10)]
Stimulated respiration (fold increase of basal leak), ACTH heptapeptide fragments (primary brown adipocytes): no impact on respiration
Ucp1 mRNA expression, ACTH heptapeptide fragments [3]: significantly increased Ucp1 mRNA expression

PACAP: pituitary adenylate cyclase-activating peptide
Stimulated respiration (UCP1-dependent uncoupled respiration) as fold increase of basal leak respiration, GsPCR ligand screen (primary brown adipocytes): weakest effects on cellular respiration
FLUC (luciferase) activity as surrogate for Ucp1 expression [1]: highest FLUC activities

PTH: parathyroid hormone, ligand of PTHR
Stimulated respiration (UCP1-dependent uncoupled respiration) as fold increase of basal leak respiration, GsPCR ligand screen (primary brown adipocytes): modest compared to ISO
FLUC (luciferase) activity as surrogate for Ucp1 expression [1]: highest FLUC activities

adrenomedullin: ligand for calcitonin receptor-like receptor (CALCRL)
FLUC (luciferase) activity as surrogate for Ucp1 expression [1]: only had minor effects

secretin: peptide ligand of the secretin receptor
Stimulated respiration (UCP1-dependent uncoupled respiration) as fold increase of basal leak respiration, GsPCR ligand screen (primary brown adipocytes): most prominent induction of UCP1-dependant uncoupled respiration
FLUC (luciferase) activity as surrogate for Ucp1 expression [1]: highest FLUC activities

thyroid hormone
FLUC (luciferase) activity as surrogate for Ucp1 expression [1]: no effect on FLUC

α-MSH: α-melanocyte-stimulating hormone, melanocortin
Stimulated respiration (UCP1-dependent uncoupled respiration) as fold increase of basal leak respiration, GsPCR ligand screen (primary brown adipocytes): weakest effects on cellular respiration
FLUC (luciferase) activity as surrogate for Ucp1 expression [1]: moderate rise in FLUC activity

Reference: PMC6344423, “Opposing Actions of Adrenocorticotropic Hormone and Glucocorticoids on UCP1-Mediated Respiration in Brown Adipocytes” (Frontiers in Physiology, 2019)
